Patent US9133207B2, “Tetrandrine derivatives with substituted 5-carbon, preparation method and use thereof” (Hangzhou Bensheng Pharmaceutical Co., Ltd., priority 2011, dated 2015)
≈ marks a conversion by molar mass, not a printed value.

How the values were obtained:
[1] = system: SK-OV-3 (ovarian cancer cell); test: Solid tumor cell growth inhibition, MTT, 72 h (Example 7); format: cell-based; conditions: Homo sapiens
Outline: (§1)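 4000 cells/well in DMEM high glucose with 10% FBS pre-cultured 24 h at 37 °C, 5% CO2, then exposed to tetrandrine derivatives at various concentrations for 72 h. Viability measured by MTT, expressed as % of untreated control.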

[2] = system: Hela (human cervical cancer cell); test: as above; format: cell-based; conditions: Homo sapiens; 72 h, MTT, Hela
Outline: as §1

[3] = system: U87 MG (malignant glioma cell); test: as above; format: cell-based; conditions: Homo sapiens, U-87 MG
Outline: as §1

[4] = system: MGC 803 (human gastric cancer cell); test: as above; format: cell-based; conditions: Homo sapiens
Outline: as §1

[5] = system: CNE (nasopharyngeal carcinoma cell); test: as above; format: cell-based; conditions: Homo sapiens
Outline: as §1

[6] = system: Becap37 (human breast cancer cell); test: as above; format: cell-based; conditions: Homo sapiens; 72 h, MTT, Becap-37
Outline: as §1

[7] = system: Huh7 (human liver cancer cell); test: as above; format: cell-based; conditions: Homo sapiens; 72 h, MTT, Huh-7
Outline: as §1

[8] = system: RKO (human colon adenocarcinoma cell); test: as above; format: cell-based; conditions: Homo sapiens; 72 h, MTT, RKO
Outline: as §1

A549 (human lung cancer) = test: as above; format: cell-based; conditions: Homo sapiens; 72 h, MTT, A549
Outline: as §1

[9] = system: RPMI8226 (multiple myeloma); test: Multiple myeloma cell growth inhibition, MTT, 72 h (Example 6); format: cell-based, human; conditions: Homo sapiens, RPMI-8226; 72 h, MTT, RPMI8226
Outline: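 RPMI8226 cells (6000 per well) in RPMI 1640 with 10% FBS were exposed to a range of tetrandrine derivative concentrations for 72 h at 37 °C under 5% CO2. Viable cell concentration was then measured by MTT.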

[10] = system: K562/adr (drug-resistant, chronic myeloid leukemia, CML); test: Leukemia cell growth inhibition, MTT, 72 h (Example 5); format: cell-based, human; conditions: Homo sapiens, K562/Adr; 72 h, MTT
Outline: (§2)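 Viable cell concentration is read by the MTT method after 72 hours of exposure. Cells (6000 per well, RPMI 1640 with 10% fetal bovine serum) receive the derivatives at a range of concentrations and are kept at 37° C under 5% CO2.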

[11] = system: H9 (acute lymphoblastic leukemia, ALL); test: as above; format: cell-based, human; conditions: Homo sapiens; 72 h, MTT
Outline: as §2

[12] = system: Jurkat (acute lymphoblastic leukemia, ALL); test: as above; format: cell-based, human; conditions: Homo sapiens, Jurkat; 72 h, MTT
Outline: as §2

[13] = system: Kasumi-1 (acute myeloid leukemia M2 type, AML-M2); test: as above; format: cell-based, human; conditions: Homo sapiens, Kasumi 1
Outline: as §2

[14] = system: NB4 (acute promyelocytic leukemia, AML); test: as above; format: cell-based, human; conditions: Homo sapiens; 72 h, MTT
Outline: as §2

[15] = system: PANC-1 (pancreatic cancer); test: Solid tumor cell growth inhibition, MTT, 72 h (Example 7); format: cell-based, human; conditions: Homo sapiens; 72 h, MTT, PANC-1
Outline: as §1

[16] = system: CaES-17 (esophageal cancer cell); test: as above; format: cell-based, human; conditions: Homo sapiens, CaEs17; 72 h, MTT, CAES-17
Outline: as §1

[17] = system: Hep-2 (laryngeal carcinoma); test: as above; format: cell-based, human; conditions: Homo sapiens; 72 h, MTT, Hep 2
Outline: as §1

PC-3 (prostate cancer) = test: as above; format: cell-based, human; conditions: Homo sapiens; 72 h, MTT, PC-3
Outline: as §1

MG63 (osteosarcoma) = test: as above; format: cell-based, human; conditions: Homo sapiens; 72 h, MTT, MG-63
Outline: as §1

[18] = Experiment 8-1: body weight of nude mice, preliminary toxicity; format: in vivo, BALB/c nude mice
Protocol: (§3) BS-TE-403 and BS-TE-333 (the present invention), and tetrandrine TTD from Jiangxi Jinfurong Pharmaceutical Co., Ltd. All compounds are administered at the dosage of 50 mg/kg weight each time.
(§4) The experiments are divided into 4 groups: negative control group (solvent group), positive control group (lead compound TTD group), BS-TE-403 group and BS-TE-333 group.
(§5) The administrations are successive for 10 days.

[19] = system: human non-small cell lung cancer cell line A549 transplanted tumor; test: Experiment 8-1: transplanted tumor of human lung cancer in nude mice; format: in vivo, BALB/c nude mice
Protocol: Cell lines: human non-small cell lung cancer cell line A549, from China Center for Type Culture Collection (CCTCC);
as §3
Under sterile conditions, the above tumor cells in the logarithmic growth phase are collected and injected by subcutaneous injection in an amount of 5×10^6/0.2 ml/nude mice (cell viability>95%) into the right subaxillary of the nude mice, thus establishing a transplated tumor model of human non-small cell lung cancer in nude mice.
as §4, §5

For `COc1ccc2cc1Oc1ccc(cc1)C[C@H]1c3cc(c(OC)cc3CCN1C)Oc1c(OC)c(OC)c(CN3CCN(C(C)C)CC3)c3c1[C@H](C2)N(C)CC3` [BS-TE-333], the IC50 [1] was 3.04 µg/mL (≈ 3.98 µM), the IC90 [1] was > 16 µg/mL and the IC50 [2] was 1.69 µg/mL (≈ 2.21 µM). The IC90 [2] was 5 µg/mL (≈ 6.55 µM), the IC50 [3] was 0.5 µg/mL (≈ 0.655 µM) and the IC90 [3] was 1.51 µg/mL (≈ 1.98 µM). For the same compound, the IC50 [4] was 0.84 µg/mL (≈ 1.1 µM), the IC90 [4] was 5.3 µg/mL (≈ 6.95 µM) and the IC50 [5] was 2.6 µg/mL (≈ 3.41 µM). For the same compound, the IC90 [5] was 5.6 µg/mL (≈ 7.34 µM), the IC50 [6] was 1 µg/mL (≈ 1.31 µM) and the IC90 [6] was 4.5 µg/mL (≈ 5.9 µM). For the same compound, the IC50 [7] was 1.64 µg/mL (≈ 2.15 µM), the IC90 [7] was 2.45 µg/mL (≈ 3.21 µM) and the IC50 [8] was 0.54 µg/mL (≈ 0.708 µM). The IC90 [8] was 1.74 µg/mL (≈ 2.28 µM), the IC50 (A549 (human lung cancer)) was 1.5 µg/mL (≈ 1.97 µM) and the IC90 (A549 (human lung cancer)) was 11 µg/mL (≈ 14.4 µM). The IC50 [9] was 0.06 µg/mL (≈ 0.0786 µM), the IC90 [9] was 2.34 µg/mL (≈ 3.07 µM) and the IC50 [10] was 0.43 µg/mL (≈ 0.564 µM). For the same compound, the IC90 [10] was 1.91 µg/mL (≈ 2.5 µM), the IC50 [11] was 1.14 µg/mL (≈ 1.49 µM) and the IC90 [11] was 1.84 µg/mL (≈ 2.41 µM). The IC50 [12] was 0.81 µg/mL (≈ 1.06 µM), the IC90 [12] was 4.18 µg/mL (≈ 5.48 µM) and the IC50 [13] was 0.77 µg/mL (≈ 1.01 µM). The IC90 [13] was 3.29 µg/mL (≈ 4.31 µM), the IC50 [14] was 0.48 µg/mL (≈ 0.629 µM) and the IC90 [14] was 1 µg/mL (≈ 1.31 µM). The IC50 [15] was 1.69 µg/mL (≈ 2.21 µM), the IC90 [15] was 9.93 µg/mL (≈ 13 µM) and the IC50 [16] was 2.35 µg/mL (≈ 3.08 µM). The IC90 [16] was 17.1 µg/mL (≈ 22.4 µM), the IC50 [17] was 1.72 µg/mL (≈ 2.25 µM) and the IC90 [17] was 9.69 µg/mL (≈ 12.7 µM). For the same compound, the IC50 (PC-3 (prostate cancer)) was 1.85 µg/mL (≈ 2.42 µM), the IC90 (PC-3 (prostate cancer)) was 2.9 µg/mL (≈ 3.8 µM) and the IC50 (MG63 (osteosarcoma)) was 0.7 µg/mL (≈ 0.917 µM). For the same compound, the IC90 (MG63 (osteosarcoma)) was 1.3 µg/mL (≈ 1.7 µM), the “toxic or side effect under such a dosage” value ([18]; 50 mg/kg) was “has caused some toxic and side effect” and the “weight loss as compared with the weight in the control group (FIG. 1)” value ([18]; 50 mg/kg) was “relatively obvious”. The “Weight (g) Final” value ([18]; 50 mg/kg intragastric, 3 times a day, 10 days, final body weight, M±SD) was 16.95 ± 2.30 g, the “Weight (g) Initial” value ([18]; nude mice body weight before administration, M±SD) was 21.3 ± 0.24 g and the “effect on transplanted tumor of human lung cancer in nude mice (FIG. 2)” value ([19]; 50 mg/kg) was “exhibit inhibiting effects”. The “Mass of tumor” value ([19]; 50 mg/kg intragastric, 3 times a day, 10 days, Day 27, M±SD) was 639.25 ± 285.20 mg and the “Tumor Inhibition rate (%)” value ([19]; 50 mg/kg intragastric, 3 times a day, 10 days, Day 27, control = zero) was 31.15%.
